Measured values as given in ChEMBL document CHEMBL5316374, “Forrestiacids E-K: Further [4 + 2]-Type Triterpene-Diterpene Hybrids as Potential ACL Inhibitors from the Vulnerable Conifer Pseudotsuga forrestii” (J Nat Prod, 2023).

target: T1, ATP-citrate synthase (Homo sapiens, UniProt P53396); experiment: Inhibition of ACL (unknown origin) incubated for 30 mins in presence of ATP by luminescence based ADP-Glo kinase assay
T1 sequence (P53396 whole entry): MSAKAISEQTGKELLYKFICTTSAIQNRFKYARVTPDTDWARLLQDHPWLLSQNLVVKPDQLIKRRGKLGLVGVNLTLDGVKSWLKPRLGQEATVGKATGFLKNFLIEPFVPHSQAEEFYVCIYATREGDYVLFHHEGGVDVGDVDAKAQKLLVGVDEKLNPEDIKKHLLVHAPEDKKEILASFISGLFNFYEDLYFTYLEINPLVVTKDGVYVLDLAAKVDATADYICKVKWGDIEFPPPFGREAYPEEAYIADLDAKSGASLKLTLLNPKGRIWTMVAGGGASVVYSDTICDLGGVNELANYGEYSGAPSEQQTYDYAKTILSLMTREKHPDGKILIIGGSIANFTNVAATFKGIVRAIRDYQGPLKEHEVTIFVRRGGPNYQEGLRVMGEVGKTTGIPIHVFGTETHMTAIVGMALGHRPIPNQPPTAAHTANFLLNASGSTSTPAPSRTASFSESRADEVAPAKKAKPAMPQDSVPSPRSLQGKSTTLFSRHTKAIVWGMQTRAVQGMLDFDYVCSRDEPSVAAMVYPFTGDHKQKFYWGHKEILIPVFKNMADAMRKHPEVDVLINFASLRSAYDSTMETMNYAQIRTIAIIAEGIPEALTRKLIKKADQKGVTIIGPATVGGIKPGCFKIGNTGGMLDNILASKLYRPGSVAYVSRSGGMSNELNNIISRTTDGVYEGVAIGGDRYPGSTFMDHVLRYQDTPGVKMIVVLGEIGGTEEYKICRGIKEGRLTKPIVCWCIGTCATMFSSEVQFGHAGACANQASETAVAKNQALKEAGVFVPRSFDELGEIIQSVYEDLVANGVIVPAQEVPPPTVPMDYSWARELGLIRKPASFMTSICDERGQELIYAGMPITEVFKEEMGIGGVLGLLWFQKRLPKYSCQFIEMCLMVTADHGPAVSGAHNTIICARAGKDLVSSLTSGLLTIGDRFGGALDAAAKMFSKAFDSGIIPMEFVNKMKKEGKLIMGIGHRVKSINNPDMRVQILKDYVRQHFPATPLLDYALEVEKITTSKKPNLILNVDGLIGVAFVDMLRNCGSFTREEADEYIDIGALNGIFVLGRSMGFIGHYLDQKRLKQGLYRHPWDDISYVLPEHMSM

| Structure (SMILES) | IC50 [µM] |
| --- | --- |
| C=C1CC[C@@](C)([C@H](C)CC(=O)C[C@](C)(C(=O)O)[C@]2(C(=C)C)C=C3CC[C@@H]4[C@](C)(CCC[C@@]4(C)C(=O)O)[C@H]3CC2)[C@@]12CCC1=C2CC[C@H]2C(C)(C)C(=O)CC[C@]12C | 11 |
| C=C1CC[C@@](C)([C@H](C)CC(=O)[C@H]2[C@H]3C[C@@H]4[C@@]5(C)CCC[C@@](C)(C(=O)O)[C@@H]5CC[C@]45C(OC(=O)[C@]25C)C3=C(C)C)[C@@]12CCC1=C2CC[C@H]2C(C)(C)C(=O)CC[C@]12C | 10.8 |
| C=C1CC[C@@](C)([C@H](C)CC(=O)C[C@@](C)(C(=O)O)[C@]2(C(=C)C)C=C3CC[C@@H]4[C@](C)(CCC[C@@]4(C)C(=O)O)[C@H]3CC2)[C@@]12CCC1=C2CC[C@H]2C(C)(C)C(=O)CC[C@]12C | 22.8 |
| CC(C)C1=CC[C@H]2C(=C1)CC[C@@H]1[C@]2(C)CCC[C@@]1(C)C(=O)O | > 40 |
| CC(C)C1=C[C@@]23CC[C@@H]4[C@](C)(CCC[C@@]4(C)C(=O)O)[C@H]2C[C@@H]1[C@H](C(=O)C[C@@H](C)[C@H]1CC[C@@]2(C)C4=C(CC[C@]12C)[C@H]1CCC(=O)C(C)(C)[C@@H]1CC4)[C@@]3(C)C(=O)O | 6.2 |
| C=C1CC[C@@H]([C@H](C)CC(=O)/C=C(\C)C(=O)O)[C@@]12CCC1=C2CC[C@H]2C(C)(C)C(=O)CC[C@]12C | 34.9 |
| C=C1CC[C@@](C)([C@H](C)CC(=O)C[C@]2(C(=O)O)C[C@H]3C[C@@H]4[C@@]5(C)CCC[C@@](C)(C(=O)O)[C@@H]5CC[C@]42C=C3C(C)C)[C@@]12CCC1=C2CC[C@@H]2[C@@H]1CC[C@H](O)C2(C)C | 7.1 |

The next compounds have a lower IC50 than those just listed; values first:

| IC50 [µM] | Structure (SMILES) |
| --- | --- |
| 3.6 | C=C1CC[C@@](C)([C@H](C)CC(=O)[C@@H]2[C@H]3C[C@@H]4[C@@]5(C)CCC[C@@](C)(C(=O)O)[C@@H]5CC[C@@]4(C=C3C(C)C)[C@@]2(C)C(=O)O)[C@@]12CCC1=C2CC[C@H]2C(C)(C)C(=O)CC[C@]12C |
| 3.3 | C=C1CC[C@@](C)([C@H](C)CC(=O)C[C@@]2(C(=O)O)C[C@H]3C[C@@H]4[C@@]5(C)CCC[C@@](C)(C(=O)O)[C@@H]5CC[C@]42C=C3C(C)C)[C@@]12CCC1=C2CC[C@@H]2[C@@H]1CCC(=O)C2(C)C |
| 0.46 | COc1ccc(-c2ccccc2)cc1NS(=O)(=O)c1cc(Cl)cc(Cl)c1O |
| 1.8 | C=C1CC[C@@](C)([C@H](C)CC(=O)C[C@]2(C(=O)O)C[C@H]3C[C@@H]4[C@@]5(C)CCC[C@@](C)(C(=O)O)[C@@H]5CC[C@]42C=C3C(C)C)[C@@]12CCC1=C2CC[C@@H]2[C@@H]1CCC(=O)C2(C)C |
| 4.1 | C=C1CC[C@@](C)([C@H](C)CC(=O)[C@H]2[C@H]3C[C@@H]4[C@@]5(C)CCC[C@@](C)(C(=O)O)[C@@H]5CC[C@@]4(C=C3C(C)C)[C@]2(C)C(=O)O)[C@@]12CCC1=C2CC[C@H]2C(C)(C)C(=O)CC[C@]12C |
| 2.6 | CC(C)C1=C[C@@]23CC[C@@H]4[C@](C)(CCC[C@@]4(C)C(=O)O)[C@H]2C[C@@H]1C[C@@]3(CC(=O)C[C@@H](C)[C@H]1CC[C@@]2(C)C3=C(CC[C@]12C)[C@H]1CCC(=O)C(C)(C)[C@@H]1CC3)C(=O)O |
